Consider 4 compounds from patent publication US4680382A, “Analogues of actinomycin D” (priority 1986, dated 1987).

One data set concerns P388/S. Put plainly: In vivo activity against P388/S (adriamycin sensitive) leukemia, Table VII. Further details: species or system BDF1 mice. The note with it: for P388/S % ILS / P388/S tumor-free survivors/total on day 60: at optimal dose; for P388/S optimal dose: ip, days 1, 5 and 9. The method, then:
(§1) ^a Male BDF1 mice inoculated ip: 10^6 cells inoculum, day 0.
(§2) Drugs administered in 10% dimethyl sulfoxidesaline on days 1, 5 and 9. %
(§3) ILS = percent increase in life span. Fractions in parentheses = tumorfree
(§4) survivors/total on day 60. P388/S (adriamycin sensitive) and P388/ADR
(§5) (adriamycin resistant) tumors were evaluated in the same experiment with […]

Another data set has as its system P388 Leukemia. Kind of data set: Minimum effective dose and therapeutic index vs. P388 leukemia. It counts as in vivo. The note with it: dose giving 45% increase in life span in P388 tumor bearing mice; ip days 1, 5 and 9. The method, then:
(§6) These analogues were also tested in tumor-free BDF1 male mice for determination of their MTD values (Table VIII). The animals (18-22 g) were given a broad range of doses of drugs in 5% dimethyl sulfoxide-saline on days 1, 5 and 9. Drugs were administered ip and the maximum tolerated doses of agents which caused death in only 10% of the tested animals in 21 days (i.e., LD10) were recorded as MTD. […] However, the MED values of 7-hydroxy-AMD and its precursor AMD-OZL 10a are high and are seven to tenfold of the MED values of 4a and 8a. On the basis of these MED values, the therapeutic indices of 8a and 4a are 70 and 96. The therapeutic index of 2a is 13, of 10a 10, and of AMD only 4.
^a Drugs administered ip once on days 1, 5 and 9 starting 1 day after
tumor implantation. Determinations were made from analysis of plotted
^b MED (minimum effective dose) is the dose (milligram/kilogram)
providing an increase in life span of 45% over control in P388 tumor

The test system of the next data set is DNA. Kind of data set: Viscometry of DNA (test for intercalative binding). The note with it: increasing [ligand]/DNA base pair ratio. The method, then:
The equilibrium binding constants (Kapp and Bapp) of the "reverse" methyl 7a and the "reverse" phenyl 8a were determined from the Scatchard plots of binding isotherms; the Scatchard plots are produced according to the previously described methods using calf-thymus DNA [Sengupta et al, Biochem. Biophys. Acta 521, 89 (1978)]. The Kapp values are 2.5×10^6 and 2.3×10^6 M^-1, respectively; corresponding Bapp values are 0.038 and 0.036. […] But, these "reverse" analogues associate with DNA less strongly; their frequency of binding is also lower compared to that of AMD. However, the "reverse" analogues fail to cause any measurable change in the ratio of the intrinsic viscosity (γ) of DNA with the increasing ratios of [ligand]/DNA base pair (r), even when low molecular weight DNAs (0.5×10^5 to 1.0×10^5) were employed.

For another data set, the system named is P388/ADR. Put plainly: In vivo activity against P388/adriamycin-resistant leukemia. Further details: species or system BDF1 mice. The note with it: for P388/ADR optimal dose: ip, days 1, 5 and 9. The method, then:
as §1, §2, §3, §4, §5

The test system of a further data set is liver microsomes. Kind of data set: EPR detection of free-radical intermediates with liver microsomes and NADPH (anaerobic). It is filed as biochemical. The note with it: NADPH, potassium phosphate buffer. The protocol:
No free-radical intermediates were detected in the absence of enzyme or substrates.
Melting points are determined on a Thomas-Hoover melting point apparatus at a heating rate of 2° C./min. Thin-layer chromatography was performed on silica gel plates (Brinkmann Instrument Inc.). Solvent systems were (A) EtOAc-acetone (4:1), (B) CHCl3 -MeOH (9:1) and (C) Cifferri, the organic phase of the mixture EtOAc-MeOH-H2 O (20:1:20). High-performance liquid chromatography was carried out on a Varian Model 5020 gradient liquid chromatograph equipped with a CD-111L chromatography data system and fitted with a Varian reversed-phase C18 column with the following solvent systems: I, CH3 CN-5 mM NH4 OAc buffer, pH 6.4 (68:32 isocratic), flow rate 1.5 mL/min; II, 65-95% water-methanol gradient for 70 min, 1 mL/min; III, 10-90% H2 O-MeOH gradient for 120 min, 1 mL/min, with UV-visible variable- and fixed-wavelength dual detectors at 254, 440, 470 and 520 nm. IR spectra were obtained on a Perkin-Elmer Model 237 Infra Cord with KBr micropellets or in chloroform solutions. UV-visible spectra were obtained on a Gilford 250 spectrophorometer, which, with the addition of a base-line reference compensator (Analog Multiplexer 5053) and thermoprogrammer, auto four cell programmer and thermoelectric cell holder 2577, were used to obtain thermal denaturation curves. Specific rotation values were determined in chloroform solutions with a Cary 60 spectropolarimeter. NMR spectra were obtained in a JEOL FQ-90 MHz spectrometer equipped with Fourier transform. EPR spectra analyses were recorded in a Varian E-9 EPR spectrometer. All elemental analyses were within ±0.4%.
(In general: Liver microsomes are vesicles of endoplasmic reticulum, rich in cytochrome P450 enzymes.)

The nature of data set [1]: Maximum tolerated dose (LD10) in tumor-free BDF1 male mice. The note with it: lethal dose for 10% normal BDF1 male mice, 21 days (LD10); ip days 1, 5 and 9. It counts as in vivo. The method, then:
as §6
^c MTD (maximum tolerated dose) is the lethal dose
(milligram/kilogram) for 10% normal BDF1 male mice (18-22 g); animal
calculated from a plot of logdose vs. percent mortality.

For data set [2], the target named is T1, NADPH cytochrome P-450 reductase (rat liver microsomes) (Rattus norvegicus, UniProt P00388).
T1 sequence (P00388 1-678): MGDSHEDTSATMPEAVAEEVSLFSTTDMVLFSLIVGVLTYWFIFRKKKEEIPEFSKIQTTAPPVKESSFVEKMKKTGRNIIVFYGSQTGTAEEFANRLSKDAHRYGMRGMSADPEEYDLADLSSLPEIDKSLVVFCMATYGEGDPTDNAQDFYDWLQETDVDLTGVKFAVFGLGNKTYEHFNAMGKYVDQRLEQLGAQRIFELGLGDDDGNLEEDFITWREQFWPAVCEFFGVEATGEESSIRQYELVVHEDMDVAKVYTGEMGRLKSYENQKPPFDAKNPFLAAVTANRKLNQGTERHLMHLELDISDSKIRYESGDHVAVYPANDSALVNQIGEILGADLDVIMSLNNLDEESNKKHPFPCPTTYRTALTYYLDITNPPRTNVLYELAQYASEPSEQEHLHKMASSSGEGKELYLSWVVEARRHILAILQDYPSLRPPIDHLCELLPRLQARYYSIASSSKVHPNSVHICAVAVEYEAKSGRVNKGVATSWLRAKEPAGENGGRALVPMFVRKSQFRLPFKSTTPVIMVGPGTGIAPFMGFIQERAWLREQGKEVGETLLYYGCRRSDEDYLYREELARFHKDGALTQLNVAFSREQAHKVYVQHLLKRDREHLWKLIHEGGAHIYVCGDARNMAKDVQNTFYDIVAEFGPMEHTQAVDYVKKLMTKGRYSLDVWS
Put plainly: Stimulation of NADPH oxidation in rat hepatic microsomal incubations. The note with it: for NADPH oxid: 340 nm, 37° C., phenobarbital induced microsomes, mean ± standard error of triplicate, basal 9.11 ± 0.30; for percentage stimulation of NADPH oxidation over basal rate: (drug-stimulated rate - basal rate)/basal rate × 100.

Structures are written as SMILES. *1 amine or outer side, *2 acyl side, *3 side chain or, on linkers, in order; H or OH if unused. Where a SMILES comes first, the peptide text is derived from it. Bridges are numbered along the chain shown (N, C = ends). Roman numbers before positions name the chains, in order. [ ]: non-standard residue; d: D form. Actinocin(9to1) = Cc1c2oc3c(C)ccc(C(=O)[*:1])c3nc-2c(C(=O)[*:2])c(N)c1=O; NMeV = CN[C@H](C(=O)O)C(C)C; Sar = CNCC(=O)O

Turning to `Cc1c2oc3c(C)c(O)c(N)c(C(=O)NC4C(=O)NC(C(C)C)C(=O)N5CCCC5C(=O)N(C)CC(=O)N(C)C(C(C)C)C(=O)OC4C)c3nc-2c(C(=O)NC2C(=O)NC(C(C)C)C(=O)N3CCCC3C(=O)N(C)CC(=O)N(C)C(C(C)C)C(=O)OC2C)c(N)c1=O` (stereo not shown) [4a, 7-Hydroxy-8-amino-actinomycin D], in the data set with P388/S, the “P388/S % ILS” value is 382%, the “P388/S tumor-free survivors/total on day 60” value is 4/8 and the P388/S optimal dose is recorded as 0.6 mg/kg. Further, the “MED (minimum effective dose)” value in the data set on P388 Leukemia is 0.025 milligram/kilogram. In the data set with DNA, the “change in intrinsic viscosity of DNA / intercalative binding by viscometry” value was “lack of intercalative binding”. In the data set on P388/ADR (at optimal dose), the “P388/ADR % ILS” value was 176% and the “P388/ADR tumor-free survivors/total on day 60” value is 3/8. Also, the P388/ADR optimal dose with P388/ADR was found to be 1.2 mg/kg. In addition, in the data set on liver microsomes, the “free-radical intermediate detected by EPR” value was “Free-radical intermediates were also detected”. The “MTD (maximum tolerated dose)” value in data set [1] came out at 2.40 milligram/kilogram. In addition, in data set [2], the NADPH oxid is listed as 64.3 ± 2.11 nmol min^-1 (mg of protein)^-1 and the “percentage stimulation of NADPH oxidation over basal rate” value (shortened to “percentage stimulation”) came to 606%.

`Cc1nc2c(C(=O)NC3C(=O)NC(C(C)C)C(=O)N4CCCC4C(=O)N(C)CC(=O)N(C)C(C(C)C)C(=O)OC3C)c3nc4c(C(=O)NC5C(=O)NC(C(C)C)C(=O)N6CCCC6C(=O)N(C)CC(=O)N(C)C(C(C)C)C(=O)OC5C)c(N)c(=O)c(C)c-4oc3c(C)c2o1` [7a, 7-Amino-2,9,11-trimethyl-8H-8-oxooxazolo [4,5-b]phenoxazine 4,6-bis[carbonyl-L-threonyl-D-valyl-L-prolylsarcosyl-L-N-methylvaline-(threonine hydroxyl)] lactone]: the “free-radical intermediate detected by EPR” value in the data set on liver microsomes was “Free-radical intermediates were also detected”. Further, in data set [2], the NADPH oxid was 21.3 ± 1.93 nmol min^-1 (mg of protein)^-1 and the “percentage stimulation” value is reported as 134%.

Turning to `Cc1nc2c(C(=O)NC3C(=O)NC(C(C)C)C(=O)N4CCCC4C(=O)N(C)CC(=O)N(C)C(C(C)C)C(=O)OC3C)c3nc4c(C(=O)NC5C(=O)NC(C(C)C)C(=O)N6CCCC6C(=O)N(C)CC(=O)N(C)C(C(C)C)C(=O)OC5C)cc(=O)c(C)c-4oc3c(C)c2o1` (stereo not shown) [9a], in data set [2], the NADPH oxid is listed as 19.1 ± 1.70 nmol min^-1 (mg of protein)^-1 and the “percentage stimulation” value is given as 110%.

For the compound `Cc1c2oc3c(C)ccc(C(=O)N[C@@H]4C(=O)N[C@H](C(C)C)C(=O)N5CCC[C@H]5C(=O)N(C)CC(=O)N(C)[C@@H](C(C)C)C(=O)O[C@@H]4C)c3nc-2c(C(=O)N[C@@H]2C(=O)N[C@H](C(C)C)C(=O)N3CCC[C@H]3C(=O)N(C)CC(=O)N(C)[C@@H](C(C)C)C(=O)O[C@@H]2C)c(N)c1=O` [AMD, Actinomycin D] (I: T[dV]P[Sar][NMeV] / II: T[dV]P[Sar][NMeV]; ester I:1-I:C, II:1-II:C; linker I:N-II:N via Actinocin(9to1)), in the data set on P388/S, the “P388/S % ILS” value is recorded as 132%, the “P388/S tumor-free survivors/total on day 60” value was 1/8 and the P388/S optimal dose is recorded as 0.25 mg/kg. Also, in the data set on P388 Leukemia, the “MED (minimum effective dose)” value is reported as 0.0625 milligram/kilogram. The “change in intrinsic viscosity of DNA / intercalative binding by viscometry” value with DNA is reported as “steady rise in the value of γ”. The “P388/ADR % ILS” value in the data set on P388/ADR (at optimal dose) is given as 22%. This compound registered a P388/ADR optimal dose in the data set on P388/ADR of 0.25 mg/kg. Further, the “free-radical intermediate detected by EPR” value with liver microsomes is on record as “free-radical intermediate with broad resonance peaks was detected”. Also, the “MTD (maximum tolerated dose)” value in data set [1] was found to be 0.25 milligram/kilogram. In addition, in data set [2], the NADPH oxid is 10.01 ± 0.90 nmol min^-1 (mg of protein)^-1 and the “percentage stimulation” value was 9.9%.
